For assay [1], the system named is HIV. Kind of assay: Infection of HT-29 human colon cells through the GalCer receptor. Format: cell-based. As for the experimental part: The activity of MBPCs was evaluated on this alternative infection route as follows: HT-29 cells (5×10^5 cells) were incubated with MBPCs (5×10^-6 M) for 45 minutes and subsequently exposed to 100 TCID50 of HIV-1 (LAI), HIV-1 (NDK) or HIV-2 (ROD) for 1 hour at 37° C. The residual inoculum was inactivated by three successive trypsinations and infection was assessed by: i) direct measurement of HIV-1 p24^gag (for HIV-1 isolates) and RT activity (for HIV-1 and HIV-2 isolates) in the culture supernatants; ii) co-cultivation with human PBLs. The cells were treated with the MBPCs as follows: 1- none; 2- [GPGRAF]8 -MLC; 3- [GPGRAF]8 -MLCD; 4- [GPG(R)DAF]8 -MLC; 5- [GPGRAF]16 -MLC; 6- [[…]]4 -MLC; and 7- [[…]]4 -MLC, with all amino acids in L form unless noted otherwise. The results shown in FIG. 5A, which correspond to infection with HIV-1 (NDK), are representative of three separate experiments and the MBPC used is indicated by the number on the x-axis. The concentration of p24^gag (pg/ml) was measured during the co-culture experiment with PBLs (+++, >10 ng/ml 10 days post-infection; ++, >1 ng/ml 13 days post-infection; +, >1 ng/ml 16 days post-infection; -, no detectable p24^gag 1 month post-infection). Similar results were obtained with HIV-1 (LAI) and HIV-2 (ROD).

Assay [2] deals with GalCer receptor. Kind of assay: Binding of gp120 to GalCer (HPTLC binding assay). As for the experimental part:
In another experiment with the same MBPCs, the effect of MBPCs on the binding of gp120 to GalCer was analyzed using a high performance thin layer chromatography (HPTLC) binding assay. MBPCs (10^-4 M) were preincubated with GalCer for 1 hour at room temperature. After thorough washing, the HPTLC plates were incubated with HIV-1 recombinant gp120 (2.5 ug/ml) followed by rabbit anti-gp120 and ^125 I-goat anti-rabbit IgG. The plates were washed in PBS and exposed to Amersham Hyperfilm MP for 8 hours. As shown in FIG. 5B treatment of HT-29 cells with active MBPCs protected the cells from infection by HIV-1 (NDK isolate). This antiviral effect was correlated with its ability to block the binding of gp120 to GalCer.

The test system of assay [3] is HIV. Kind of assay: Inhibition of syncytia formation induced by HIV (summary statements). In kind it is cell-based. As for the experimental part:
CEM or C8166 cells were chronically infected with HIV-1 Lai or HIV-2 Rod, or HIV-1MN, respectively. Infected cells (1×10^4) were incubated for 2 hours with various concentrations of MBPCs in 96-well plates. Uninfected Molt-4 cells (4×10^4) were then added in […]. Syncytia were counted after 18 hours at 37° C.

Take “(GPGRAF)16 -(K)8 -(K)4 -(K)2 -K-βA-OH [MBPC.12]”: the “block of the infectivity of HIV on human colon cells” value in assay [1] is given as “completely block”. The “binding to / activity on the Galactosyl Ceramide receptor” value in assay [2] was “bind to the second receptor”. In assay [3], the “MBPC concentration with which inhibiting effect on syncytia formation was observed in vitro” value is given as “around 10^-6 M” and the “inhibiting effect on syncytia formation, in words” value was “results similar to those of MBPC.3”.
